Measurements as given in US20260232767A1, “INTERLEUKIN-23 RECEPTOR ANTAGONIST PEPTIDES FOR USE IN THE TREATMENT OF PSORIASIS” (Janssen Pharmaceutica NV, priority 2023, published 2026).

Test system: subjects with moderate-to-severe plaque psoriasis
Experiment: Safety, adverse events, Example 2 through Week 56
Format: in vivo, human
Excerpt: The LTE safety analysis was based on randomized participants in Example who entered the present long-term extension study and received at least one dose of study intervention (including a partial dose) during the study period.

[1] = 100 mg QD, Week 16 through Week 56
[2] = 100 mg QD, LTE Safety analysis set

CC(=O)NCCCC[C@@H]1NC(=O)[C@H](Cc2c[nH]c3c(C)cccc23)NC(=O)[C@H]([C@@H](C)O)NC(=O)[C@H](CC(N)=O)NC(=O)[C@@H](NC(C)=O)C(C)(C)SSC(C)(C)[C@@H](C(=O)N[C@@H](Cc2ccc(OCCN)cc2)C(=O)N[C@@H](Cc2ccc3ccccc3c2)C(=O)NC2(C(=O)N[C@@H](CCC(=O)O)C(=O)N[C@@H](CC(N)=O)C(=O)N[C@@H](Cc3cccnc3)C(=O)N(C)CC(N)=O)CCOCC2)NC1=O [IL-23 receptor antagonist peptide, Ac-[Pen]*-N-T-[W(7-Me)]-[Lys(Ac)]-[Pen]*-Phe[4-(2-aminoethoxy)]-[2-Nal]-[THP]-E-N-[3-Pal]-Sarc-NH2 (*[Pen]-[Pen]* formdisulfidebond)]
5: Subjects with treatment-emergent AE: Nasopharyngitis (100 mg BID, through Week 56)
0: Skin laceration: number of subjects (100 mg BID, through Week 56) | Social circumstances: number of subjects (100 mg BID, through Week 56) | Steatohepatitis: number of subjects (100 mg BID, through Week 56) | Subjects with AE leading to discontinuation: Abdominal pain (100 mg BID, through Week 56) | Subjects with AE leading to discontinuation: Alanine aminotransferase increased (100 mg BID, through Week 56) | Subjects with AE leading to discontinuation: Aspartate aminotransferase increased (100 mg BID, through Week 56) | Subjects with AE leading to discontinuation: Asthenia (100 mg BID, through Week 56) | Subjects with AE leading to discontinuation: Chills (100 mg BID, through Week 56) | Subjects with AE leading to discontinuation: Ear and labyrinth disorders (100 mg BID, through Week 56) | Subjects with AE leading to discontinuation: Gamma-glutamyltransferase increased (100 mg BID, through Week 56) | Subjects with AE leading to discontinuation: General disorders and administration site conditions (100 mg BID, through Week 56) | Subjects with AE leading to discontinuation: Headache (100 mg BID, through Week 56) | Subjects with AE leading to discontinuation: Insomnia (100 mg BID, through Week 56) | Subjects with AE leading to discontinuation: Investigations (100 mg BID, through Week 56) | Subjects with AE leading to discontinuation: Nausea (100 mg BID, through Week 56) | Subjects with AE leading to discontinuation: Nervous system disorders (100 mg BID, through Week 56) | Subjects with AE leading to discontinuation: Proctalgia (100 mg BID, through Week 56) | Subjects with AE leading to discontinuation: Psoriasis (100 mg BID, through Week 56) | Subjects with AE leading to discontinuation: Psychiatric disorders (100 mg BID, through Week 56) | Subjects with AE leading to discontinuation: Skin and subcutaneous tissue disorders (100 mg BID, through Week 56) | Subjects with AE leading to discontinuation: Suicide attempt (100 mg BID, through Week 56) | Subjects with AE leading to discontinuation: Transaminases increased (100 mg BID, through Week 56) | Subjects with AE leading to discontinuation: Vertigo (100 mg BID, through Week 56) | Subjects with AE leading to discontinuation: Vomiting (100 mg BID, through Week 56) | Subjects with AE leading to discontinuation: Weight increased (100 mg BID, through Week 56) | Subjects with treatment-emergent AE: Bronchitis (100 mg BID, through Week 56) | Subjects with treatment-emergent serious AE: COVID-19 (100 mg BID, through Week 56) | Subjects with treatment-emergent serious AE: Cardiac disorders (100 mg BID, through Week 56) | Subjects with treatment-emergent serious AE: Cerebrovascular accident (100 mg BID, through Week 56) | Subjects with treatment-emergent serious AE: Coronary artery disease (100 mg BID, through Week 56) | Subjects with treatment-emergent serious AE: Diverticulitis (100 mg BID, through Week 56) | Subjects with treatment-emergent serious AE: Foot deformity (100 mg BID, through Week 56) | Subjects with treatment-emergent serious AE: General disorders and administration site conditions (100 mg BID, through Week 56) | Subjects with treatment-emergent serious AE: Infected cyst (100 mg BID, through Week 56) | Subjects with treatment-emergent serious AE: Infections and infestations (100 mg BID, through Week 56) | Subjects with treatment-emergent serious AE: Injury, poisoning and procedural complications (100 mg BID, through Week 56) | Subjects with treatment-emergent serious AE: Intervertebral disc protrusion (100 mg BID, through Week 56) | Subjects with treatment-emergent serious AE: Ligament injury (100 mg BID, through Week 56) | Subjects with treatment-emergent serious AE: Musculoskeletal and connective tissue disorders (100 mg BID, through Week 56) | Subjects with treatment-emergent serious AE: Nervous system disorders (100 mg BID, through Week 56) | Subjects with treatment-emergent serious AE: Non-cardiac chest pain (100 mg BID, through Week 56) | Subjects with treatment-emergent serious AE: Psychiatric disorders (100 mg BID, through Week 56) | Subjects with treatment-emergent serious AE: Respiratory, thoracic and mediastinal disorders (100 mg BID, through Week 56) | Subjects with treatment-emergent serious AE: Suicide attempt (100 mg BID, through Week 56) | Subjects with treatment-emergent serious AE: Tonsillar hypertrophy (100 mg BID, through Week 56) | Subjects with treatment-emergent serious AE: Ventricular dysfunction (100 mg BID, through Week 56) | Suicide attempt: number of subjects (100 mg BID, through Week 56) | Sunburn: number of subjects (100 mg BID, through Week 56) | Thrombocytopenia: number of subjects (100 mg BID, through Week 56) | Tonsillar hypertrophy: number of subjects (100 mg BID, through Week 56) | Ventricular dysfunction: number of subjects (100 mg BID, through Week 56) | Vertigo: number of subjects (100 mg BID, through Week 56) | Vitamin D deficiency: number of subjects (100 mg BID, through Week 56) | Number of subjects with treatment-emergent AE: Endocrine disorders [1] | Number of subjects with treatment-emergent AE: Eye disorders [1] | Number of subjects with treatment-emergent AE: Eyelid skin dryness [1] | Number of subjects with treatment-emergent AE: Goiter [1] | Number of subjects with treatment-emergent AE: Hypertransaminasemia [1] | Number of subjects with treatment-emergent AE: Immune system disorders [1] | Number of subjects with treatment-emergent AE: Insomnia [1] | Number of subjects with treatment-emergent AE: Ocular cyst [1] | Number of subjects with treatment-emergent AE: Psychiatric disorders [1] | Number of subjects with treatment-emergent AE: Retinal vein occlusion [1] | Number of subjects with treatment-emergent AE: Seasonal allergy [1] | Subjects with adverse event: Alanine aminotransferase increased [2] | Subjects with adverse event: Aspartate aminotransferase increased [2] | Subjects with adverse event: Bronchitis [2] | Subjects with adverse event: Meniscus injury [2] | Subjects with adverse event: Sinusitis [2] | Subjects with adverse event: Urinary tract infection [2] | Subjects with serious adverse event: Cerebrovascular accident [2] | Subjects with serious adverse event: Coronary artery disease [2] | Subjects with serious adverse event: Foot deformity [2] | Subjects with serious adverse event: Ligament injury [2] | Subjects with serious adverse event: Non-cardiac chest pain [2] | Subjects with serious adverse event: Tonsillar hypertrophy [2] | Subjects with serious adverse event: Uterine leiomyoma [2] | Subjects with serious adverse event: Ventricular dysfunction [2] | Subjects with AE leading to discontinuation: Alanine aminotransferase increased (100 mg QD, Week 16-56) | Subjects with AE leading to discontinuation: Aspartate aminotransferase increased (100 mg QD, Week 16-56) | Subjects with AE leading to discontinuation: Asthenia (100 mg QD, Week 16-56) | Subjects with AE leading to discontinuation: Gamma-glutamyltransferase increased (100 mg QD, Week 16-56) | Subjects with AE leading to discontinuation: Insomnia (100 mg QD, Week 16-56) | Subjects with AE leading to discontinuation: Investigations (100 mg QD, Week 16-56) | Subjects with AE leading to discontinuation: Proctalgia (100 mg QD, Week 16-56) | Subjects with AE leading to discontinuation: Psoriasis (100 mg QD, Week 16-56) | Subjects with AE leading to discontinuation: Psychiatric disorders (100 mg QD, Week 16-56) | Subjects with AE leading to discontinuation: Skin and subcutaneous tissue disorders (100 mg QD, Week 16-56) | Subjects with COVID-19 associated AE of interest: SARS-CoV-2 test positive (100 mg QD, Week 16-56) | Subjects with treatment-emergent AE: Alanine aminotransferase increased (100 mg QD, Week 16-56) | Subjects with treatment-emergent AE: Aspartate aminotransferase increased (100 mg QD, Week 16-56)
(2.4%): Rhinorrhoea: % of subjects (100 mg BID, through Week 56) | Seasonal allergy: % of subjects (100 mg BID, through Week 56) | Skin papilloma: % of subjects (100 mg BID, through Week 56) | Thrombocytosis: % of subjects (100 mg BID, through Week 56) | Tooth fracture: % of subjects (100 mg BID, through Week 56) | Type 2 diabetes mellitus: % of subjects (100 mg BID, through Week 56) | Urinary tract disorder: % of subjects (100 mg BID, through Week 56) | Uterine leiomyoma: % of subjects (100 mg BID, through Week 56)
(2.5%): Subjects with treatment-emergent AE: Cholelithiasis (%) [1] | Subjects with treatment-emergent AE: Ear and labyrinth disorders (%) [1] | Subjects with treatment-emergent AE: Hepatobiliary disorders (%) [1] | Subjects with treatment-emergent AE: Vertigo (%) [1]
2: Vascular disorders: number of subjects (100 mg BID, through Week 56)
3: Skin and subcutaneous tissue disorders: number of subjects (100 mg BID, through Week 56)
(4.8%): Vascular disorders: % of subjects (100 mg BID, through Week 56)
7: Subjects with treatment-emergent AE: Gastrointestinal disorders (100 mg BID, through Week 56)
1: Rhinorrhoea: number of subjects (100 mg BID, through Week 56) | Seasonal allergy: number of subjects (100 mg BID, through Week 56) | Skin papilloma: number of subjects (100 mg BID, through Week 56) | Thrombocytosis: number of subjects (100 mg BID, through Week 56) | Tooth fracture: number of subjects (100 mg BID, through Week 56) | Type 2 diabetes mellitus: number of subjects (100 mg BID, through Week 56) | Urinary tract disorder: number of subjects (100 mg BID, through Week 56) | Uterine leiomyoma: number of subjects (100 mg BID, through Week 56) | Number of subjects with treatment-emergent AE: Cholelithiasis [1] | Number of subjects with treatment-emergent AE: Ear and labyrinth disorders [1] | Number of subjects with treatment-emergent AE: Hepatobiliary disorders [1] | Number of subjects with treatment-emergent AE: Vertigo [1]
(7.1%): Skin and subcutaneous tissue disorders: % of subjects (100 mg BID, through Week 56)
